Measurements reported in patent publication US20240393292A1, “ALLERGY ANTIGEN AND EPITOPE THEREOF” (HOYU CO., LTD., priority 2019, published 2024).
One block for each substance: values may come before it.

Test system: IgE antibodies from patients
Assay: Wheat epitope mapping (2): overlapping 10-amino-acid peptide fragments shifted by one amino acid;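 on Rank of partial sequence as epitope binding to IgE antibody: key = sequence deemed particularly important within the common 15-residue sequence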;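 on epitope sequence binding to IgE antibody, rank (Key/Preferably/More preferably): key of grades: preferably = shorter partial sequence still acting as epitope; more preferably = sequence improving IgE binding; key = particularly important sequence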
Assay type: binding, human
Method: The peptides to be synthesized were shifted by one amino acid.
The library was prepared by the same procedure as described above in (A), and the presence or absence of binding of an IgE antibody present in the serum of a patient to each peptide fragment was measured by the same technique as described above. Numeric values determined from images obtained as a result of carrying out only the procedures (1) and (4) to (6) described above in the subsection titled (3) Spotting of cellulose-bound peptide solution were used as control values. The control value of each peptide was subtracted from numeric values determined from images obtained from results about the serum of patients, and the obtained value of the difference was compared with values of the peptides serving as the basis of overlapping.
Chemiluminescence intensity in images obtained by measurement was converted into a numeric value in the same manner as in (A). Numeric values determined from images obtained as a result of carrying out only the procedures (1) and (4) to (6) described above in the subsection titled (3) Spotting of cellulose-bound peptide solution (secondary antibody measurement values) were used as control values. The control value of each peptide was subtracted from numeric values determined from images obtained from results about the serum of patients. When values obtained using the sequences (SEQ ID NOs: 29, 131, 191, 281, 346, 414, 493, 562, 640, 706, 776, 899, 974, 1010, 1089, 1142, 1166, 1209, 1257, 1297, 1367, 1403, 1508, 1566, 1598, 1608, 1685, 1753, 1789, 1836, 1895, 1977, 2004, 2027, 2068, 2154, 2217, 2265, 2309, 2342, 2419, 2491, 2545, 2613, 2631, 2674, 2701, 2774, 2809 and 2830) serving as the basis of overlapping were defined as 100%, it was determined that: a peptide having a value of the difference that was less than 30% had no binding activity against IgE antibodies; a peptide having a value of the difference that was 30% or more and less than 50% had binding activity, albeit poor, against IgE antibodies; a peptide having a value of the difference that was 50% or more and less than 70% had binding activity, albeit somewhat poor, against IgE antibodies; and a peptide having a value of the difference that was 70% or more had equivalent or good binding activity against IgE antibodies and was thus a peptide had remaining binding activity against IgE antibodies.

[1] = serum of patient P21 (WDEIA), sequence without X
[2] = serum of patient P32 (WDEIA), sequence without X
[3] = serum of patient P53 (child, general immediate type allergy to wheat), sequence without X
[4] = serum of patient P26 (WDEIA), sequence without X
[5] = serum of patient G4 (adult, general immediate type allergy to wheat), sequence without X
[6] = serum of patient P34 (WDEIA), sequence without X

Substance: 1699 (EAANFT; REGION 1..6: note = epitope) [compound 1699]
Rank of partial sequence as epitope binding to IgE antibody [1]: Preferably

Substance: 1247 (PIQQQP; REGION 1..6: note = epitope) [compound 1247]
Epitope sequence binding to IgE antibody, rank of the sequence [2]: Key

Substance: 1770 (VSSYLKK; REGION 1..7: note = epitope) [compound 1770]
epitope sequence binding to IgE antibody, rank (Key/Preferably/More preferably) (serum of patient P50 (child, general immediate type allergy to wheat)): Key

Substance: 1543 (QVPLVQQ; REGION 1..7: note = epitope) [compound 1543]
Rank of partial sequence as epitope binding to IgE antibody [1]: Preferably

Substance: 1939 (QVPLVQQ; REGION 1..7: note = epitope) [compound 1939]
epitope sequence binding to IgE antibody, rank (Key/Preferably/More preferably) (serum of patient P21 (WDEIA)): Preferably

Substance: 1677 (PFVPISG; REGION 1..7: note = epitope) [compound 1677]
Rank of partial sequence as epitope binding to IgE antibody (serum of patient G5 (adult, general immediate type allergy to wheat), sequence without X): Key

Substance: 1965 (QQFPGQQ; REGION 1..7: note = epitope) [compound 1965]
epitope sequence binding to IgE antibody, rank (Key/Preferably/More preferably) (serum of patient P33 (WDEIA)): Preferably

Substance: 1565 (QQQQFLGQ; REGION 1..8: note = epitope) [compound 1565]
Rank of partial sequence as epitope binding to IgE antibody (serum of patient G7 (adult, general immediate type allergy to wheat), sequence without X): Key

Substance: 1822 (SGKELEALPK; REGION 1..10: note = epitope) [compound 1822]
epitope sequence binding to IgE antibody, rank (Key/Preferably/More preferably) (serum of patient P35 (WDEIA)): Key

Substance: 1826 (PKFL; REGION 1..4: note = epitope) [compound 1826]
epitope sequence binding to IgE antibody, rank (Key/Preferably/More preferably) (serum of patient G1 (adult, general immediate type allergy to wheat)): Key

Substance: 1852 (YTVRTLQRT; REGION 1..9: note = epitope) [compound 1852]
epitope sequence binding to IgE antibody, rank (Key/Preferably/More preferably) (serum of patient P17 (WDEIA)): More preferably

Substance: 1628 (YNPDKVP; REGION 1..7: note = epitope) [compound 1628]
Rank of partial sequence as epitope binding to IgE antibody (serum of patient P27 (WDEIA), sequence without X): Preferably

Substance: 1885 (RTLQ; REGION 1..4: note = epitope) [compound 1885]
epitope sequence binding to IgE antibody, rank (Key/Preferably/More preferably) (serum of patient P35 (WDEIA)): Key

Substance: 1282 (LPRS; REGION 1..4: note = epitope) [compound 1282]
Epitope sequence binding to IgE antibody, rank of the sequence (serum of patient P33 (WDEIA), sequence without X): Key

Substance: 1405 (YLQPQQPISQ; REGION 1..10: note = epitope) [compound 1405]
Epitope sequence binding to IgE antibody, rank of the sequence (Key/Preferably/More preferably/Further preferably) (serum of patient P2 (WDEIA), sequence without X): Key

Substance: 1180 (QQFPP; REGION 1..5: note = epitope) [compound 1180]
Epitope sequence binding to IgE antibody, rank of the sequence (serum of patient P12 (WDEIA), sequence without X): Key

Substance: 1942 (QQFPGQQ; REGION 1..7: note = epitope) [compound 1942]
epitope sequence binding to IgE antibody, rank (Key/Preferably/More preferably) (serum of patient P21 (WDEIA)): Preferably

Substance: 1825 (LPKF; REGION 1..4: note = epitope) [compound 1825]
epitope sequence binding to IgE antibody, rank (Key/Preferably/More preferably) (serum of patient P52 (child, general immediate type allergy to wheat)): Key

Substance: 1837 (VRTLQRT; REGION 1..7: note = epitope) [compound 1837]
epitope sequence binding to IgE antibody, rank (Key/Preferably/More preferably) (serum of patient P3 (WDEIA)): Preferably

Substance: 1968 (QFPGQQ; REGION 1..6: note = epitope) [compound 1968]
epitope sequence binding to IgE antibody, rank (Key/Preferably/More preferably) (serum of patient P34 (WDEIA)): Key

Substance: 1231 (PQQPP; REGION 1..5: note = epitope) [compound 1231]
Epitope sequence binding to IgE antibody, rank of the sequence (serum of patient P13 (WDEIA), sequence without X): Key

Substance: 1168 (PGQQQQFPPQ; REGION 1..10: note = epitope) [compound 1168]
Epitope sequence binding to IgE antibody, rank of the sequence (serum of patient P3 (WDEIA), sequence without X): Preferably

Substance: 1758 (YLKK; REGION 1..4: note = epitope) [compound 1758]
epitope sequence binding to IgE antibody, rank (Key/Preferably/More preferably) (serum of patient P14 (WDEIA)): Key

Substance: 1443 (SQQQA; REGION 1..5: note = epitope) [compound 1443]
Rank of partial sequence as epitope binding to IgE antibody (serum of patient P18 (WDEIA), sequence without X): Key

Substance: 1581 (PFPQTQQPQ; REGION 1..9: note = epitope) [compound 1581]
Rank of partial sequence as epitope binding to IgE antibody (serum of patient P20 (WDEIA), sequence without X): More preferably

Substance: 1506 (YLQPQQP; REGION 1..7: note = epitope) [compound 1506]
Rank of partial sequence as epitope binding to IgE antibody (serum of patient G9 (adult, general immediate type allergy to wheat), sequence without X): Preferably

Substance: 1655 (FVPISG; REGION 1..6: note = epitope) [compound 1655]
Rank of partial sequence as epitope binding to IgE antibody (serum of patient P51 (child, general immediate type allergy to wheat), sequence without X): Key

Substance: 1670 (YNPDKVPFV; REGION 1..9: note = epitope) [compound 1670]
Rank of partial sequence as epitope binding to IgE antibody [5]: Preferably

Substance: 1336 (NVEN; REGION 1..4: note = epitope) [compound 1336]
Epitope sequence binding to IgE antibody, rank of the sequence [4]: Key

Substance: 1656 (NPDKVPFV; REGION 1..8: note = epitope) [compound 1656]
Rank of partial sequence as epitope binding to IgE antibody [3]: Key

Substance: 1351 (INVEN; REGION 1..5: note = epitope) [compound 1351]
Epitope sequence binding to IgE antibody, rank of the sequence [6]: Preferably

Substance: 1634 (YNPDKVPF; REGION 1..8: note = epitope) [compound 1634]
Rank of partial sequence as epitope binding to IgE antibody [2]: Preferably

Substance: 1811 (ALPKFLKNG; REGION 1..9: note = epitope) [compound 1811]
epitope sequence binding to IgE antibody, rank (Key/Preferably/More preferably) (serum of patient P26 (WDEIA)): Preferably

Results, then the substance that gave them:

Epitope sequence binding to IgE antibody, rank of the sequence (serum of patient P35 (WDEIA), partial sequence): Key
Substance: 2694 (YKGPTL; REGION 1..6: note = epitope) [compound 2694]

Epitope sequence binding to IgE antibody, rank of the sequence (Key/Preferably/More preferably) (serum of patient P55 (child, general immediate type allergy to wheat), sequence without X): Key
Substance: 2257 (SRLLRGIRN; REGION 1..9: note = epitope) [compound 2257]

Epitope sequence binding to IgE antibody, rank of the sequence (serum of patient P2 (WDEIA), partial sequence): Preferably
Substance: 2547 (QSTYQLVQQL; REGION 1..10: note = epitope) [compound 2547]

Epitope sequence binding to IgE antibody, rank of the sequence (Key/Preferably/More preferably) (serum of patient P30 (WDEIA), sequence without X): Key
Substance: 2237 (NYRV; REGION 1..4: note = epitope) [compound 2237]

Epitope sequence binding to IgE antibody, rank of the sequence (serum of patient P31 (WDEIA), partial sequence): Key
Substance: 2741 (GIGTVPVGRV; REGION 1..10: note = epitope) [compound 2741]

Epitope sequence binding to IgE antibody, rank of the sequence (Key/Preferably/More preferably) [3]: Key
Substance: 2330 (AIRAI; REGION 1..5: note = epitope) [compound 2330]

Epitope sequence binding to IgE antibody, rank of the sequence (Key/Preferably/More preferably) (serum of patient P9 (WDEIA), sequence without X): Key
Substance: 2344 (HDIDRCAY; REGION 1..8: note = epitope) [compound 2344]

Epitope sequence binding to IgE antibody, rank of the sequence (Key/Preferably/More preferably/Further preferably) (serum of patient P50 (child, general immediate type allergy to wheat), sequence without X): More preferably
Substance: 2294 (LGGIDKRVIE; REGION 1..10: note = epitope) [compound 2294]

Epitope sequence binding to IgE antibody, rank of the sequence (Key/Preferably/More preferably) [4]: Preferably
Substance: 2372 (TEIVL; REGION 1..5: note = epitope) [compound 2372]

Epitope sequence binding to IgE antibody, rank of the sequence (serum of patient P20 (WDEIA), partial sequence): Key
Substance: 2555 (QSTYQLVQQL; REGION 1..10: note = epitope) [compound 2555]

Epitope sequence binding to IgE antibody, rank of the sequence (Key/Preferably/More preferably) [5]: Key
Substance: 2302 (IDKRVIERFE; REGION 1..10: note = epitope) [compound 2302]

Epitope sequence binding to IgE antibody, rank of the sequence (serum of patient P14 (WDEIA), partial sequence): Preferably
Substance: 2640 (RFEKEAAEMN; REGION 1..10: note = epitope) [compound 2640]

Epitope sequence binding to IgE antibody, rank of the sequence (Key/Preferably/More preferably) (serum of patient P36 (WDEIA), sequence without X): Key
Substance: 2244 (RNYRVA; REGION 1..6: note = epitope) [compound 2244]

Epitope sequence binding to IgE antibody, rank of the sequence (Key/Preferably/More preferably) (serum of patient P17 (WDEIA), sequence without X): Key
Substance: 2225 (VSRLLRGIRN; REGION 1..10: note = epitope) [compound 2225]

Epitope sequence binding to IgE antibody, rank of the sequence (Key/Preferably/More preferably) [6]: Key
Substance: 2291 (LGGIDK; REGION 1..6: note = epitope) [compound 2291]
